# Test system: RSV A2
# Assay: RSV antiviral cytopathic effect (CPE) assay, MTT readout
# Assay type: cell-based
# Conditions: human respiratory syncytial virus, HEp-2, 120 h, read-out: Activity Range (RSV A2 antiviral EC50), compounds of Table 2
# Experimental: Method Q: RSV Antiviral Assay Protocol
# Compounds of the invention were tested for their antiviral activity against respiratory syncytial virus. Cytopathic effect (CPE) assays were performed essentially as described in the literature (see for example Watanabe et al, 1. Virological Methods, 1994, 48, 257). Serial dilutions of the test compounds were made in assay medium. HEp2 cells (1.0×10^4 cells/well) were infected with RSV at a low multiplicity of infection (e.g. RSV A2 at an moi of 0.01) and 100 μL added to cultures assessing antiviral activity and cells without virus added to those assessing compound cytotoxicity. Assays were incubated for approximately 5 days at 37° C. in a 5% CO2 atmosphere. The extent of CPE was determined via metabolism of the vital dye 3-(4,5-dimethylthiaxol-2-yl)-2,5-diphenyltetrazolium bromide (MTT). A 3 mg/ml stock of MTT was made in assay medium and 100 μL added to each well, taking the final MTT concentration to […]. After 2 hours incubation at 37° C., the media-MTT solution was removed and 200 μL of isopropanol was added to dissolve the vital dye crystals. Plates were shaken and the absorbance read at 540 nm. The compound concentrations that inhibited CPE by 50% (EC50) and developed cytotoxicity (CC50) were calculated using an Excel curve fitting program.
row,Compound,EC50 [µg/mL]
1,Cc1nnsc1C(=O)N1CCN2C(=O)c3ccccc3C21c1ccc(Cl)cc1 (stereo not drawn) [Compound 184],< 0.1

# Same assay, conditions: human respiratory syncytial virus, HEp-2, 120 h; RSV A2 in HEp2 cells, CPE assay, MTT, approx. 5 days; read-out: Activity Range (RSV A2 antiviral EC50), compounds of Table 2
row,EC50 [µg/mL],Compound
1,0.25 to 1,CC(C)Oc1ccc(C23c4ccccc4C(=O)N2CCN3C(=O)c2ccc(F)cc2)cc1 (stereo not drawn) [Compound 310]
2,0.25 to 1,CC(C)c1ccc(C23c4ccccc4C(=O)N2CCN3C(=O)c2ccc(F)cc2)cc1 (stereo not drawn) [Compound 203]
3,0.1 to 0.25,O=C(c1ccc(F)cc1)N1CCN2C(=O)c3ccccc3C12c1ccc(C(F)(F)F)cc1 (stereo not drawn) [Compound 307]
4,< 0.1,Cn1cc(C(=O)N2CCN3C(=O)c4ccccc4C32c2ccc(Cl)cc2)c(C(F)(F)F)n1 (stereo not drawn) [Compound 333]
5,0.1 to 0.25,O=C(c1ccno1)N1CCN2C(=O)c3ccccc3C12c1ccc(Cl)cc1 (stereo not drawn) [Compound 183]
6,0.1 to 0.25,O=C(c1ccc(F)cc1)N1CCN2C(=O)c3ccccc3C12c1cccc(Cl)c1 (stereo not drawn) [Compound 144]
7,< 0.1,O=C(c1csnn1)N1CCN2C(=O)c3ccccc3C12c1ccc(Cl)cc1 (stereo not drawn) [Compound 243]
8,0.1 to 0.25,COc1ccc(CC(=O)N2CCN3C(=O)c4ccccc4C23c2ccc(Br)cc2)cc1 (stereo not drawn) [Compound 235]
9,0.1 to 0.25,O=C(c1cccc(Cl)n1)N1CCN2C(=O)c3ccccc3C12c1ccc(Cl)cc1 (stereo not drawn) [Compound 330]
10,< 0.1,O=C(c1cccnc1)N1CCN2C(=O)c3ccccc3C12c1ccc(Cl)cc1 (stereo not drawn) [Compound 230]
11,0.1 to 0.25,CCOc1ccc(C23c4ccccc4C(=O)N2CCN3C(=O)c2ccc(F)cc2)cc1 (stereo not drawn) [Compound 308]
12,0.1 to 0.25,COc1ccc(NC(=O)N2CCN3C(=O)c4ccccc4C23c2ccc(C)cc2)cc1 (stereo not drawn) [Compound 86]
13,0.1 to 0.25,Cc1noc(C)c1COc1ccc(C23c4ccccc4C(=O)N2CCN3C(=O)c2ccc(F)cc2)cc1 (stereo not drawn) [Compound 263]
14,0.25 to 1,O=C(c1ccc(Cl)nc1)N1CCN2C(=O)c3ccccc3C12c1ccc(Cl)cc1 (stereo not drawn) [Compound 312]
15,0.1 to 0.25,O=C(c1ccc(F)cc1)N1CCN2C(=O)c3ccccc3C12c1ccc(OCc2ccccc2)cc1 (stereo not drawn) [Compound 262]
16,0.25 to 1,CCC(=O)N1CCN2C(=O)c3ccccc3C12c1ccc(CC)cc1 (stereo not drawn) [Compound 192]
17,0.1 to 0.25,O=C(Cc1cccc(Br)c1)N1CCN2C(=O)c3ccccc3C12c1ccc(Cl)cc1 (stereo not drawn) [Compound 242]
18,0.25 to 1,O=C(c1ccc(F)cc1)N1CCN2C(=O)c3ccccc3C12c1ccc(F)cc1 (stereo not drawn) [Compound 231]

row,EC50 [µg/mL],Compound
1,0.25 to 1,O=C(c1ccc(F)cc1)N1CCN2C(=O)c3ccccc3C12c1ccc(OCCCCCl)cc1 (stereo not drawn) [Compound 264]
2,0.1 to 0.25,N#CCOc1ccc(C23c4ccccc4C(=O)N2CCN3C(=O)c2ccc(F)cc2)cc1 (stereo not drawn) [Compound 239]
3,0.1 to 0.25,O=C(c1csc(-c2cccs2)n1)N1CCN2C(=O)c3ccccc3C12c1ccc(Cl)cc1 (stereo not drawn) [Compound 324]
4,0.25 to 1,COc1ccc(CNC(=O)N2CCN3C(=O)c4ccccc4C23c2ccc(Cl)cc2)cc1 (stereo not drawn) [Compound 180]
5,0.1 to 0.25,O=C(c1ccc(F)cc1)N1CCN2C(=O)c3ccccc3C12c1ccc(OCCCl)cc1 (stereo not drawn) [Compound 265]
6,0.25 to 1,O=C(CCCc1c[nH]c2ccccc12)N1CCN2C(=O)c3ccccc3C12c1ccc(Cl)cc1 (stereo not drawn) [Compound 228]
7,0.25 to 1,COc1ccc(CCC(=O)N2CCN3C(=O)c4ccccc4C23c2ccc(Cl)cc2)cc1 (stereo not drawn) [Compound 211]
8,0.1 to 0.25,O=C1c2ccccc2C2(c3ccc(Cl)cc3)N1CCN2C(=O)c1sccc1Cl (stereo not drawn) [Compound 328]
9,0.1 to 0.25,O=C(NCc1ccc(F)cc1)N1CCN2C(=O)c3ccccc3C12c1ccc(Cl)cc1 (stereo not drawn) [Compound 87]
10,0.25 to 1,CCCc1ccc(C23c4ccccc4C(=O)N2CCN3C(=O)CC)cc1 (stereo not drawn) [Compound 199]
11,< 0.1,Cc1cc(C(=O)N2CCN3C(=O)c4ccccc4C32c2ccc(Cl)cc2)c(C)o1 (stereo not drawn) [Compound 325]
12,0.25 to 1,O=C1c2ccccc2C2(c3ccc(Cl)cc3)N1CCN2C(=O)[C@@H]1CSC(c2cccs2)=N1 (stereo partly drawn) [Compound 323]
13,0.25 to 1,O=C(CSc1ncccn1)N1CCN2C(=O)c3ccccc3C12c1ccc(Cl)cc1 (stereo not drawn) [Compound 303]
14,< 0.1,Cc1ccc(C23c4ccccc4C(=O)N2CCN3C(=O)NCc2ccc(F)cc2)cc1 (stereo not drawn) [Compound 88]
15,0.25 to 1,CC(=O)COc1ccc(C23c4ccccc4C(=O)N2CCN3C(=O)c2ccc(F)cc2)cc1 (stereo not drawn) [Compound 268]
16,0.1 to 0.25,O=C(CSCc1ccccc1)N1CCN2C(=O)c3ccccc3C12c1ccc(Cl)cc1 (stereo not drawn) [Compound 217]
17,0.25 to 1,NCCNc1ccc(C(=O)N2CCN3C(=O)c4ccccc4C23c2ccc(Cl)cc2)cn1 (stereo not drawn) [Compound 320]
18,0.25 to 1,O=C1c2ccccc2C2(c3ccc(Cl)cc3)N1CCN2C(=O)C1Cc2ccccc21 (stereo not drawn) [Compound 218]

# Same assay, conditions: human respiratory syncytial virus, HEp-2, 120 h; RSV A2 in HEp2 cells, CPE assay, MTT, approx. 5 days; read-out: Activity Range (RSV A2 antiviral EC50), compounds of Table 3
row,EC50 [µg/mL],Compound
1,0.25 to 1,Cc1cc(C(=O)N2CCN3C(=O)c4ccncc4C23c2ccc(Cl)cc2)nn1C (stereo not drawn) [Compound 421]
2,0.25 to 1,O=C(c1ccc(F)cc1)N1CCN2C(=O)c3ccncc3C12c1ccccc1Cl (stereo not drawn) [Compound 344]
3,< 0.1,COc1ccc(-c2ocnc2C(=O)N2CCN3C(=O)c4ccncc4C32c2ccc(Cl)cc2)cc1 (stereo not drawn) [Compound 462]
4,0.25 to 1,O=C(c1ccc(Cl)nc1)N1CCN2C(=O)c3ccncc3C12c1ccc(Cl)cc1 (stereo not drawn) [Compound 364]
5,0.1 to 0.25,CCc1ccc(C23c4cnccc4C(=O)N2CCN3C(=O)c2ccc(F)cc2)cc1 (stereo not drawn) [Compound 361]
6,0.1 to 0.25,Cc1nnsc1C(=O)N1CCN2C(=O)c3ccncc3C21c1ccc(Cl)cc1 (stereo not drawn) [Compound 386]
7,0.1 to 0.25,O=C(c1ccno1)N1CCN2C(=O)c3ccncc3C12c1ccc(Cl)cc1 (stereo not drawn) [Compound 448]
8,< 0.1,O=C(c1ccco1)N1CCN2C(=O)c3ccncc3C12c1ccc(Cl)cc1 (stereo not drawn) [Compound 413]
9,< 0.1,O=C1c2ccncc2C2(c3ccc(Cl)cc3)N1CCN2C(=O)c1ncoc1-c1ccccc1 (stereo not drawn) [Compound 463]
10,0.25 to 1,O=C(c1ccc(F)nc1)N1CCN2C(=O)c3ncccc3C12c1ccc(Cl)cc1 (stereo not drawn) [Compound 370]
11,0.1 to 0.25,Cc1nc(-c2cnccn2)sc1C(=O)N1CCN2C(=O)c3ccncc3C21c1ccc(Cl)cc1 (stereo not drawn) [Compound 458]
12,0.25 to 1,CC(C)c1nnsc1C(=O)N1CCN2C(=O)c3ccncc3C21c1ccc(Cl)cc1 (stereo not drawn) [Compound 464]
13,0.25 to 1,O=C(c1cncnc1)N1CCN2C(=O)c3ccncc3C12c1ccc(Cl)cc1 (stereo not drawn) [Compound 481]
14,0.25 to 1,Cc1nc(-c2ccccc2)sc1C(=O)N1CCN2C(=O)c3ccncc3C21c1ccc(Cl)cc1 (stereo not drawn) [Compound 468]
15,< 0.1,Cn1cc(C(=O)N2CCN3C(=O)c4ccncc4C32c2ccc(Cl)cc2)c(C(F)(F)F)n1 (stereo not drawn) [Compound 467]
16,0.25 to 1,COc1ccc(-c2cc(C(=O)N3CCN4C(=O)c5ccncc5C34c3ccc(Cl)cc3)on2)cc1 (stereo not drawn) [Compound 465]
17,0.25 to 1,O=C(c1ccc(C#Cc2ccccc2)o1)N1CCN2C(=O)c3ccncc3C12c1ccc(Cl)cc1 (stereo not drawn) [Compound 416]
18,0.1 to 0.25,Cc1nn(-c2ccccc2)nc1C(=O)N1CCN2C(=O)c3ccncc3C21c1ccc(Cl)cc1 (stereo not drawn) [Compound 387]

row,EC50 [µg/mL],Compound
1,0.25 to 1,Cc1cc(C(=O)N2CCN3C(=O)c4ccncc4C23c2ccc(Cl)cc2)oc1C (stereo not drawn) [Compound 415]
2,0.1 to 0.25,O=C(c1ccc(F)nc1)N1CCN2C(=O)c3cccnc3C12c1ccc(Cl)cc1 (stereo not drawn) [Compound 369]
3,0.25 to 1,O=C(c1csc(-c2ccncc2)n1)N1CCN2C(=O)c3ccncc3C12c1ccc(Cl)cc1 (stereo not drawn) [Compound 457]
4,0.25 to 1,CCc1ccc(C23c4cnccc4C(=O)N2CCN3C(=O)Cc2ccc(OC)cc2)cc1 (stereo not drawn) [Compound 371]
5,0.25 to 1,O=C1c2ccncc2C2(c3ccc(Cl)cc3)N1CCN2C(=O)c1cccnc1Oc1ccccc1 (stereo not drawn) [Compound 404]
6,0.1 to 0.25,CSc1ncc(Cl)c(C(=O)N2CCN3C(=O)c4ccncc4C32c2ccc(Cl)cc2)n1 (stereo not drawn) [Compound 454]
7,0.1 to 0.25,CC(C)c1sc(Cl)nc1C(=O)N1CCN2C(=O)c3ccncc3C21c1ccc(Cl)cc1 (stereo not drawn) [Compound 474]
8,0.1 to 0.25,O=C(c1ccc(F)cc1)N1CCN2C(=O)c3ccncc3C12c1ccc(Br)cc1 (stereo not drawn) [Compound 358]
9,0.1 to 0.25,Cc1noc(C)c1C(=O)N1CCN2C(=O)c3ccncc3C21c1ccc(Cl)cc1 (stereo not drawn) [Compound 392]
10,0.25 to 1,Cc1oc(-c2ccccc2)cc1C(=O)N1CCN2C(=O)c3ccncc3C21c1ccc(Cl)cc1 (stereo not drawn) [Compound 394]
11,< 0.1,O=C(c1ccc(F)nc1)N1CCN2C(=O)c3ccncc3C12c1ccc(Br)cc1 (stereo not drawn) [Compound 366]
12,0.25 to 1,O=C1c2ccncc2C2(c3ccc(Cl)cc3)N1CCN2C(=O)c1ccnn1-c1ccccc1 (stereo not drawn) [Compound 423]
13,0.25 to 1,CCCCC#Cc1cncc(C(=O)N2CCN3C(=O)c4ccncc4C23c2ccc(Cl)cc2)c1 (stereo not drawn) [Compound 408]
14,0.1 to 0.25,O=C(c1cncc(Br)c1)N1CCN2C(=O)c3ccncc3C12c1ccc(Cl)cc1 (stereo not drawn) [Compound 405]
15,0.25 to 1,Cc1cc(C(=O)N2CCN3C(=O)c4ccncc4C32c2ccc(Cl)cc2)n(C)n1 (stereo not drawn) [Compound 420]
16,< 0.1,O=C1c2ccncc2C2(c3ccc(Cl)cc3)N1CCN2C(=O)c1sccc1Cl (stereo not drawn) [Compound 442]
17,< 0.1,O=C(c1csnn1)N1CCN2C(=O)c3ccncc3C12c1ccc(Cl)cc1 (stereo not drawn) [Compound 456]

# Reference: US8598193B2, “Polycyclic agents for the treatment of respiratory syncytial virus infections” (Biota Scientific Management Pty Ltd., priority 2003, dated 2013)
